From patent US20050145258A1, “Composition, Method and Device for Blood Supply Fluctuation Therapy” (priority 2004, published 2005)

How the values were obtained:
liver cancer = type: in vivo, human
Procedure: The inlet tube member 2 was connected to gas resource of gaseous CO2. 500 ml of the gaseous CO2 was introduced into storing bag for cleaning the air within the storing bag and delivery system. T Stopcock 1 in inlet tube member 2 was turned off to stop the gas into storing bag temporally. The gaseous CO2 in storing bag 3 was aspirated into syringe 6, then impelled by the syringe 6. Due to the function of check valve, during the aspirating of syringe, the first check valve 5 was open; meanwhile the second and third check valves were closed automatically. The gas in the storing bag was aspirated into syringe 6. During the impelling of syringe, the first check valve was closed and the second and third check valves were open automatically. The gaseous CO2 in the syringe is impelled out of the delivery device through the outlet of the third three-way stopcock. Repeating syringe aspirating and impelling until all gas in the storing bag was emptied, and the air within storing bag and delivery device was cleaned. After that, the stopcock on the inlet tubular member was turned on again to introduce the gaseous CO2 from the gas resource into storing bag 3 to fill the storing bag (2000 ml), then the stopcock 1 was turned off to stop gaseous CO2 introduction. The gaseous CO2 and delivery system was ready for use. […] The delivery catheter 13 was connected to the outlet of the third three-way stopcock of the delivery system, and the air within the catheter 13 was removed. Using the gaseous CO2 as contrast medium, 50 ml gaseous CO2 at rate of 10 ml/second was injected by syringe 6 into the hepatic artery to perform a diagnostic DSA. The diagnostic DSA was used to identify the location, size of tumor, arteries supplying blood to liver cancer, blood flow within tumor tissue and time gaseous CO2 staying in tumor vessels. All those information was necessary to doctor to select an optimal protocol of Blood Supply Fluctuation Therapy (BSFT). Then, the angiographic catheter was advanced into the artery supplying blood flow to the liver cancer. […] Blood Supply Fluctuation Therapy (BSFT) with Gaseous CO2: gaseous CO2 was injected slowly by the delivery syringe 6 through the catheter 13 into the tumor vasculature. […] The gas displaces the blood flow within the tumor vessels partially or entirely depending on the injection rate and lasting time. With increasing of the gaseous mixture, the blood supply to the liver cancer was decreased, even stopped. Because tumor vasculature was immature, “vapor lock” in tumor vasculature was produced by the gaseous CO2. With decreasing and stopping of the blood flow of tumor vasculature, the gaseous CO2 injected through delivery catheter might overflow into the arteries supplying normal liver tissue that could be detected and monitored by X-ray fluoroscopy, DSA, CT or ultrasound imaging. Because the gaseous CO2 was absorbable in blood and could be flushed away in normal vasculature within one minute, therefore the gaseous CO2 overflowing into normal vasculature caused no damage in normal liver tissue. At this time, gaseous CO2 delivery was stopped. Due to vapor lock, there was no blood flow in tumor vasculature and no nutrition and oxygen was delivery to tumor cells, which made it under starvation and hypoxia. Meanwhile also due to the vapor lock, area of the CO2 bubbles contacting with blood was getting much smaller, which limits CO2 absorbability and prolongs CO2 gas staying within tumor vasculature. […] Under X-ray fluoroscopy, the tumor looked like a balloon filled with gas (FIG. 9). Thirty minutes after injection of CO2 about half of the gas still remained in the tumor (FIG. 10).

uterine fibroids = test: Blood supply fluctuation therapy with gaseous mixture of CO2 and nitric oxide in patients with uterine fibroids; type: in vivo, human
Description: Preparation of gaseous mixture of CO2 and Nitric Oxide: the preparation procedure was same as that of gaseous CO2 in example 1, except the gaseous material was not CO2, but the gaseous mixture of CO2 and Nitric Oxide (NO). The concentration of NO was present in an amount effective to prevent vasospasm and ischemia, 40 ppm here.
Selective catheterization and diagnostic Digital Subtraction Angiogrpahy (DSA) with Gaseous Mixture of CO2 and Nitric Oxide (NO): under monitoring of X-ray fluoroscope and using interventional technique of selective catheterization, a delivery catheter was inserted into the internal iliac artery in the patients with uterine fibroids. […]
Blood Supply Fluctuation Therapy (BSFT) with Gaseous Mixture of CO2 and Nitric Oxide (NO): gaseous mixture of CO2 and Nitric Oxide (NO) was injected slowly and intermittently by the delivery syringe through the delivery catheter into tumor vasculature at the rate of 1 ml/s and with 5 minutes interval each 20 ml injection. […] With the decreasing and stopping of the blood flow of tumor vasculature, the gaseous mixture injected through delivery catheter might overflows into the arteries supplying normal uterine wall that could be detected and monitored by X-ray fluoroscopy, DSA, CT or ultrasound imaging. […]

## O=C=O [CO2, carbon dioxide]
Liver cancer; human, in vivo
  CO2 bubbles in immature tumor vasculature, DSA imaging: filled and accumulated
  CO2 bubbles in normal liver tissue, DSA imaging: no bubbles accumulated
  damage in normal liver tissue: no damage
  discomfort felt by patients receiving the injection: minor discomfort on liver area
  time CO2 accumulates and stays in abnormal vasculature: for hours, even for days
  time to be flushed away in normal vasculature: one
Liver cancer; repeated 50 ml injections through catheter
  vapor lock in tumor vasculature: produced
Liver cancer; tumor 7 cm in diameter, total of 500 ml CO2, 3-5 ml/s, 3-5 minutes interval each 50 ml injection
  filling of liver tumor with CO2, X-ray: fully filled
Uterine fibroids; 45 minutes after BSFT
  vapor lock in tumor vasculature, CT scan: produced
Uterine fibroids; human, in vivo
  gas seen in normal uterine tissue, CT scan: No gas
